Source: publication PMC10781691, “Vertical pathway inhibition of receptor tyrosine kinases and BAD with synergistic efficacy in triple negative breast cancer” (NPJ Precision Oncology, 2024)

Legend:
MDA-MB-231 xenografts [1] = experiment: Orthotopic xenograft, combination study; format: in vivo; conditions: Balb/c-nude mice, day 22; NCK 20 mg/kg, OSI 50 mg/kg, CRI 50 mg/kg
USTC-1 PDX = experiment: TNBC patient-derived xenograft; format: in vivo, NOD/SCID mice; conditions: for Median survival: USTC-1, vehicle 22.5
Experimental: (§1) The effect of drug treatments on two patient-derived xenograft (PDX) models of TNBC, USTC-0 and USTC-1 were next examined. The use of the USTC-1 PDX was previously reported.
(§2) In vivo bioluminescent imaging was performed to determine the incidence and metastatic burden of luciferase-labeled 4T1 cells. Mice were injected i.p. with 10 mg/ml of D-luciferin (Gold Biotechnology, MO, USA) and imaged using a PerkinElmer IVIS Spectrum system. PDX were generated as previously described by transplanting fresh fragments orthotopically into 8-week-old female nonobese diabetic (NOD)/severe combined immunodeficient (SCID) mice (Beijing Vital River Laboratory Animal Technology Co., Beijing, China) (P1, passage 1)[40]. The P1 xenografts were then fragmented, digested into single-cell suspension and implanted into mammary fat pad (100 μL PBS containing growth factor reduced 50% Matrigel) of NOD/SCID mice. Once orthotopic xenografts reached an approximate size of 100 mm^3, the mice were randomly divided into three groups (n = 8) for single drug studies and six groups (n = 6) for combination studies and Kaplan-Meier (KM) analyses. […] Animal body weight and xenograft size were measured daily using an electronic balance and a digital caliper, respectively. Xenograft volume (mm^3) was calculated by using the formula: 0.52 × length × [width]^2. Complete response (CR) was achieved if the average xenograft volume for the treatment group was unable to be determined for two or more consecutive measurements. Partial response (PR) was achieved if the average xenograft volume reduced to <50 mm^3 for two or more consecutive measurements. After 3-week drug treatment, all mice were sacrificed by CO2 inhalation. Tumor and vital organs were weighed and isolated for further analysis. IHC analysis of xenograft histology sections and quantitative polymerase chain reaction (qPCR) were performed as previously described. […] For PDX, xenograft growth was monitored daily by measurement of the xenograft volume until mice humane endpoint ( ~ 1000 mm^3).

USTC-0 PDX = experiment: TNBC patient-derived xenograft; format: in vivo, NOD/SCID mice; conditions: for survival of PDX-bearing mice / Median survival: USTC-0; for survival of PDX-bearing mice: single agents vs vehicle, combinations vs OSI-930 or Crizotinib alone; for Median survival: vehicle 25.5
Experimental: as §1, §2

BT549 cells = experiment: Foci formation (crystal violet); conditions: BT549, 5 μM each
[2] = system: MAPK and PI3K/AKT pathways; experiment: Western blot of PI3K/AKT and MAPK pathway proteins; format: cell-based, human
Experimental: Next, western blot analyses were performed to determine potential alteration in expression or activity of the target proteins along the MAPK and PI3K/AKT pathways. […] . […] CI analysis method.

MDA-MB-231 xenografts [3] = experiment: Orthotopic xenograft, combination study; format: in vivo, BALB/c-nude mice; conditions: for cells of human origin in lung sections (IHC staining of human HPRT): MDA-MB-231-engrafted mice; for % Regression: Complete Response (100%) / % Regression: Partial Response (>50%) / % Regression: Disease Progression: MDA-MB-231 xenograft; for % Regression: Disease Progression: day 21 (xenograft volume >100 mm^3); for lung metastasis incidence (mice with detectable lung hHPRT mRNA, qPCR): n = 6, vehicle 3 out of 6
Experimental: In vivo bioluminescent imaging was performed to determine the incidence and metastatic burden of luciferase-labeled 4T1 cells. Mice were injected i.p. with 10 mg/ml of D-luciferin (Gold Biotechnology, MO, USA) and imaged using a PerkinElmer IVIS Spectrum system. PDX were generated as previously described by transplanting fresh fragments orthotopically into 8-week-old female nonobese diabetic (NOD)/severe combined immunodeficient (SCID) mice (Beijing Vital River Laboratory Animal Technology Co., Beijing, China) (P1, passage 1)[40]. The P1 xenografts were then fragmented, digested into single-cell suspension and implanted into mammary fat pad (100 μL PBS containing growth factor reduced 50% Matrigel) of NOD/SCID mice. Once orthotopic xenografts reached an approximate size of 100 mm^3, the mice were randomly divided into three groups (n = 8) for single drug studies and six groups (n = 6) for combination studies and Kaplan-Meier (KM) analyses. […] Animal body weight and xenograft size were measured daily using an electronic balance and a digital caliper, respectively. Xenograft volume (mm^3) was calculated by using the formula: 0.52 × length × [width]^2. Complete response (CR) was achieved if the average xenograft volume for the treatment group was unable to be determined for two or more consecutive measurements. Partial response (PR) was achieved if the average xenograft volume reduced to <50 mm^3 for two or more consecutive measurements. After 3-week drug treatment, all mice were sacrificed by CO2 inhalation. Tumor and vital organs were weighed and isolated for further analysis. IHC analysis of xenograft histology sections and quantitative polymerase chain reaction (qPCR) were performed as previously described.
Data represent means ± SD. *P < 0.05, **P < 0.01, and ***P < 0.001.
Data represent means ± SD (n=6). *P < 0.05, **P
< 0.01, and ***P < 0.001.
Abbreviations: ALT/GOT, alanine
aminotransferase/ glutamic oxaloacetic transaminase; AST/GPT, aspartate aminotransferase/
glutamic pyruvic transaminase; CREA, creatinine; UREA, urea; and ALB, albumin. Data
represent means ± SD. *P < 0.05, **P < 0.01, and ***P < 0.001.

MDA-MB-231 cells = experiment: Foci formation (crystal violet); conditions: MDA-MB-231, 5 μM each
[4] = system: BAD phosphorylation at Ser99; experiment: Western blot of BAD phosphorylation at Ser99 in TNBC cells; format: cell-based, human; conditions: MDA-MB-231 and BT549 cells; for level of pBADSer99/BAD: 1 μM
[5] = Balb/c-nude mice, day 22, NCK 20 mg/kg, OSI 50 mg/kg, CRI 50 mg/kg
[6] = day 21, NCK 20 mg/kg q.d., OSI-930 20 mg/kg q.d., Crizotinib 50 mg/kg b.i.w.
[7] = serum, NCK 20 mg/kg, OSI 50 mg/kg, CRI 50 mg/kg

SMILES	Colon Length (MDA-MB-231 xenografts [1]) [cm]	PDX xenograft volume (USTC-1 PDX; USTC-1, 21 days treatment)	Median survival (USTC-1 PDX) [days]	PDX xenograft volume (USTC-0 PDX; USTC-0, 21 days treatment)	survival of PDX-bearing mice (USTC-0 PDX)	Median survival (USTC-0 PDX) [days]	2D foci formation (BT549 cells)	phosphorylated and total proteins of MAPK and PI3K/AKT pathways ([2]; BT549, 1 μM)	phosphorylated and total proteins of MAPK and PI3K/AKT pathways ([2]; MDA-MB-231, 1 μM)	cells of human origin in lung sections (IHC staining of human HPRT) (MDA-MB-231 xenografts [3])	% Regression: Complete Response (100%) (MDA-MB-231 xenografts [3]; day 21) [%]	% Regression: Partial Response (>50%) (MDA-MB-231 xenografts [3]; day 21) [%]	% Regression: Disease Progression (MDA-MB-231 xenografts [3]) [%]	lung metastasis incidence (mice with detectable lung hHPRT mRNA, qPCR) (MDA-MB-231 xenografts [3])	ALB (MDA-MB-231 xenografts [3]; [7]) [g/L]	ALT/GOT (MDA-MB-231 xenografts [3]; [7]) [U/L]	AST/GPT (MDA-MB-231 xenografts [3]; [7]) [U/L]	UREA (MDA-MB-231 xenografts [3]; [7]) [mmol/L]	2D foci formation (MDA-MB-231 cells)	level of pBADSer99/BAD [4]	also measured
Oc1ccccc1C(c1cccnc1)N1CCN(c2cccc(Cl)c2Cl)CC1 (stereo not drawn) [NCK, 2-((4-(2,3-dichlorophenyl)piperazin-1-yl)(pyridin-3-yl)methyl) phenol]	9.55±0.84	significantly reduced the xenograft volume	34.5	significantly reduced the xenograft volume	markedly extended the survival	42.0	significantly attenuated the capacity for foci formation	did not affect	did not affect	not in the lung sections	33	17	50	1/6	28.48 ± 3.45	75.66±23.55	296.04±102.48	14.01 ± 3.33	significantly attenuated the capacity for foci formation	significantly decreased the level of pBADSer99/BAD	Relative Liver Weight (MDA-MB-231 xenografts [1]): 5.70±0.38%; reduction in xenograft burden vs vehicle (USTC-1 PDX; USTC-1, 21 days treatment): 45.6%; reduction in xenograft burden vs vehicle (USTC-0 PDX; USTC-0, 21 days treatment): 66.0%; Relative Heart Weight (MDA-MB-231 xenografts [3]; [5]): 0.74±0.16%; Relative Kidney Weight (MDA-MB-231 xenografts [3]; [5]): 1.60±0.14%; Relative Lung Weight (MDA-MB-231 xenografts [3]; [5]): 2.39±0.57%; Relative Spleen Weight (MDA-MB-231 xenografts [3]; [5]): 0.77±0.14%; MKI67 positivity in xenograft vs vehicle (MDA-MB-231 xenografts [3]; NCK 20 mg/kg q.d.): significantly reduced MKI67 positivity; TUNEL scores in xenograft vs vehicle (MDA-MB-231 xenografts [3]; NCK 20 mg/kg q.d.): increased TUNEL scores; level of pBADSer99 in resected xenograft vs vehicle (MDA-MB-231 xenografts [3]; NCK 20 mg/kg q.d.): reduced the level of pBADSer99; complete regression of xenografts (MDA-MB-231 xenografts [3]; [6]): 33.33%; complete regression of xenografts (number of xenografts) (MDA-MB-231 xenografts [3]; [6]): 2/6; CREA (MDA-MB-231 xenografts [3]; [7]): 23.49 ± 3.02 µmol/L; inhibition of BAD phosphorylation at Ser99 (decreased pBADSer99/BAD ratio), effective concentration ([4]; vs DMSO): ≥ 0.1 μM
O=C(Nc1ccc(OC(F)(F)F)cc1)c1sccc1NCc1ccnc2ccccc12 [OSI-930]	9.34±0.67	significantly reduced the xenograft volume	29.5	significantly reduced the xenograft volume	markedly extended the survival	34.0	significantly attenuated the capacity for foci formation	significantly reduced the level of p-AKT (Ser473)/AKT	significantly inhibited the PI3K/AKT pathway	not in the lung sections	0	33	67	none of the mice had lung metastasis	30.61 ± 0.84	81.99±27.99	298.22±75.62	12.36 ± 6.01	significantly attenuated the capacity for foci formation	significantly decreased the level of pBADSer99/BAD	–
